According to patent US6462055B2, “Alpha-methylbenzyl-containing thiourea inhibitors of herpes viruses containing a phenylenediamine group” (Wyeth, priority 1998, dated 2002):
Values after ≈ are worked out from the molar mass of the structure shown.

Tests used:
VZV strain Ellen = test: VZV Antiviral (ELISA) Assay in human foreskin fibroblast cells; type: cell-based, varicella-zoster virus; settings: for IC50 / inhibition at 10 µg/mL: Human alphaherpesvirus 3, Fibroblast; for IC50: read-out: IC50 (ug/ml) VZV; for inhibition at 10 µg/mL: read-out: % inhibition 10 ug/ml VZV, 10 ug/ml
Procedure, shortened: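 First, fibroblasts are infected at multiplicity below 0.1 and kept overnight. The harvested cell mixture then goes onto compound-containing wells for three days at 37° C. Finally, cells are fixed and viral gpII is measured by fluorogenic ELISA.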

HSV-1 = test: HSV Antiviral (ELISA) Assay in Vero cells; type: cell-based, herpes simplex virus type 1; settings: HSV-1, Vero cells; for IC50: Human alphaherpesvirus 1, read-out: IC50 (ug/ml) HSV
Procedure, shortened: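 Viral replication was quantified by cell-fixed ELISA for HSV glycoprotein D, using a β-galactosidase reporter and fluorogenic umbelliferyl substrate, about 24 h after HSV-1 infection (MOI 0.006) of Vero cells. Compounds, at several concentrations, were added 30 min pre-infection. IC50 was derived from fluorescence relative to the compound-free signal.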

[1] = system: HCMV recombinant mutant virus (RV145); test: microbe, parasite or virus in culture; type: cell-based, human cytomegalovirus; settings: for IC50: Human betaherpesvirus 5, read-out: IC50 ug/ml HCMV, HCMV
Procedure, shortened: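 Read-out is beta-glucuronidase activity in cell lysates 96 h after infection, measured colorimetrically or fluorometrically. Reporter virus RV145 expresses the enzyme under a viral promoter in human foreskin fibroblasts treated with inhibitor.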

SMILES | IC50 (VZV strain Ellen) | IC50 (HSV-1) | IC50 [1] | IC50 (ug/ml) VZV (VZV strain Ellen) | IC50 (ug/ml) HSV (HSV-1) | IC50 ug/ml HCMV [1] | % inhibition 10 ug/ml VZV (VZV strain Ellen) | inhibition at 10 µg/mL (VZV strain Ellen)
COCCOc1ccc(NC(=S)Nc2ccc(NC(=O)c3ccccc3F)cc2)cc1Cl [Example 996, N-(4-{3-[3-Chloro-4-(2-methoxy-ethoxy)-phenyl]-thioureido}-phenyl)-2-fluoro-benzamide] | 10 µg/mL (≈ 21.1 µM) | > 10 µg/mL | > 10 µg/mL | – | – | – | – | –
O=C(Nc1ccc(NC(=S)NCCCc2ccccc2)cc1)c1ccccc1F [Example 628] | – | – | – | 10 µg/mL (≈ 24.5 µM) | >10 µg/mL | >10 µg/mL | – | –
COc1cc(C)c(Cl)cc1NC(=S)Nc1ccc(NC(=O)c2c(F)cccc2F)cc1 [Example 333] | – | – | – | 4.5 µg/mL (≈ 9.74 µM) | 0.04 µg/mL (≈ 0.0866 µM) | 2.5 µg/mL (≈ 5.41 µM) | 92% | –
Nc1c(Br)cc(NC(=S)Nc2ccc(NC(=O)c3ccccc3F)cc2)cc1Br [Example 519] | – | – | – | >10 µg/mL | 0.4 µg/mL (≈ 0.743 µM) | 1.7 µg/mL (≈ 3.16 µM) | 18% | –
COc1ccccc1C(=O)Nc1ccc(NC(=S)NC(C)c2ccc(Br)cc2)cc1 (centres unmarked) [Example 1019, N-(4-{3-[1-(4-Bromo-phenyl)-ethyl]-thioureido}-phenyl)-2-methoxy-benzamide] | 0.05 µg/mL (≈ 0.103 µM) | > 10 µg/mL | 2.6 µg/mL (≈ 5.37 µM) | – | – | – | – | –
COc1cc(OC)c(NC(=S)Nc2ccc(NC(=O)c3ccccc3)cc2)cc1Cl [Example 122] | – | – | – | >10 µg/mL | 0.3 µg/mL (≈ 0.679 µM) | 4 µg/mL (≈ 9.05 µM) | 13% | –
COc1cc(C)c(Cl)cc1NC(=S)Nc1ccc(NC(=O)c2ccccc2F)cc1 [Example 849, N-{4-[3-(5-Chloro-2-methoxy-4-methyl-phenyl)-thioureido]-phenyl}-2-fluoro-benzamide] | > 10 µg/mL | > 10 µg/mL | > 10 µg/mL | – | – | – | – | 38%
COc1cc(OC)c(NC(=S)Nc2ccc(NC(=O)c3cc(F)ccc3F)cc2)cc1Cl [Example 187] | – | – | – | >10 µg/mL | 0.2 µg/mL (≈ 0.418 µM) | >10 µg/mL | 53% | –
O=C(CN1CCCCCC1)Nc1ccc(NC(=S)Nc2ccc(NC(=O)c3ccccc3F)cc2)cc1Cl [Example 423] | – | – | – | 0.9 µg/mL (≈ 1.62 µM) | 4 µg/mL (≈ 7.22 µM) | 1 µg/mL (≈ 1.8 µM) | 87% | –
COc1ccccc1C(=O)Nc1ccc(NC(=S)NC(C)c2cc3ccccc3o2)cc1 (centres unmarked) [Example 1018, N-{4-[3-(1-Benzofuran-2-yl-ethyl)-thioureido]-phenyl}-2-methoxy-benzamide] | 0.09 µg/mL (≈ 0.202 µM) | > 10 µg/mL | > 10 µg/mL | – | – | – | – | –
CN(C)CCSCC(=O)Nc1ccc(NC(=S)Nc2ccc(NC(=O)c3ccccc3F)cc2)cc1Cl [Example 373] | – | – | – | >10 µg/mL | 9 µg/mL (≈ 16.1 µM) | 6 µg/mL (≈ 10.7 µM) | 4% | –
Cc1ccccc1C(=O)Nc1ccc(NC(=S)Nc2ccc(N(C)C3CCCCC3)c(Cl)c2)cc1 [Example 247] | – | – | – | 5 µg/mL (≈ 9.86 µM) | >10 µg/mL | >10 µg/mL | 74% | –
Nc1ccc(NC(=S)Nc2ccc(NC(=O)c3ccccc3F)cc2)cc1Cl [Example 404] | – | – | – | >10 µg/mL | 0.4 µg/mL (≈ 0.964 µM) | 8 µg/mL (≈ 19.3 µM) | 15% | –
CC(=O)Oc1ccc(C(=O)Nc2ccc(NC(=S)NC(C)c3ccc(F)cc3)cc2)cc1 (centres unmarked) [Example 757] | – | – | – | 1.5 µg/mL (≈ 3.32 µM) | >10 µg/mL | >10 µg/mL | – | –
Nc1ccc(Cl)cc1NC(=S)Nc1ccc(NC(=O)c2ccccc2F)cc1 [Example 437] | – | – | – | 8 µg/mL (≈ 19.3 µM) | 0.05 µg/mL (≈ 0.121 µM) | >10 µg/mL | 0% | –
CCN(CC)CC(=O)Nc1ccc(NC(=S)Nc2ccc(NC(=O)c3ccccc3F)cc2)cc1Cl [Example 414] | – | – | – | >15 µg/mL | 6 µg/mL (≈ 11.4 µM) | >10 µg/mL | 70% | –

SMILES | IC50 (VZV strain Ellen) | IC50 (HSV-1) | IC50 [1] | IC50 (ug/ml) VZV (VZV strain Ellen) | IC50 (ug/ml) HSV (HSV-1) | IC50 ug/ml HCMV [1] | % inhibition 10 ug/ml VZV (VZV strain Ellen) | inhibition at 10 µg/mL (VZV strain Ellen)
CC(NC(=S)Nc1ccc(NC(=O)c2ccc(C(F)(F)F)cc2)cc1)c1ccc(F)cc1 (centres unmarked) [Example 1021, N-(4-{3-[1-(4-Fluorophenyl)-ethyl]-thioureido}-phenyl)-4-trifluoromethyl-benzamide] | 0.4 µg/mL (≈ 0.867 µM) | > 10 µg/mL | > 10 µg/mL | – | – | – | – | –
COc1ccc(C(C)NC(=S)Nc2ccc(NC(=O)c3ccccc3F)cc2)cc1 (centres unmarked) [Example 777] | – | – | – | >7.5 µg/mL | >10 µg/mL | 1.7 µg/mL (≈ 4.01 µM) | – | –
CC(N=[N+]=[N-])c1ccc(NC(=S)Nc2ccc(NC(=O)c3ccccc3F)cc2)cc1Cl (centres unmarked) [Example 492] | – | – | – | >10 µg/mL | >10 µg/mL | 2 µg/mL (≈ 4.26 µM) | 32% | –
COc1cc(OC)c(NC(=S)Nc2ccc(NC(=O)c3cccc(OCCN4CCOCC4)c3)cc2)cc1Cl [Example 258] | – | – | – | 1.5 µg/mL (≈ 2.63 µM) | 1.5 µg/mL (≈ 2.63 µM) | 5 µg/mL (≈ 8.76 µM) | 92% | –
Cc1ccc(NC(=S)Nc2ccc(NC(=O)c3ccccc3F)c(C)c2)cc1Cl [Example 395] | – | – | – | >10 µg/mL | 0.2 µg/mL (≈ 0.467 µM) | 3 µg/mL (≈ 7.01 µM) | 64% | –
CC1CCCCN1CC(=O)Nc1ccc(NC(=S)Nc2ccc(NC(=O)c3ccccc3F)cc2)cc1Cl (centres unmarked) [Example 425] | – | – | – | >7.5 µg/mL | 3 µg/mL (≈ 5.41 µM) | 0.5 µg/mL (≈ 0.902 µM) | 103% | –
Cc1ccc(NC(=S)Nc2ccc(NC(=O)c3ccccc3F)cc2)cc1Cl [Example 231] | – | – | – | >10 µg/mL | 0.5 µg/mL (≈ 1.21 µM) | >10 µg/mL | 11% | –
COc1cc(OC)c(NC(=S)Nc2ccc(NC(=O)c3cccc(NC(C)=O)c3)cc2)cc1Cl [Example 134] | – | – | – | >10 µg/mL | > 10 µg/mL | 4 µg/mL (≈ 8.02 µM) | 50% | –
COc1cc(OC)c(NC(=S)Nc2ccc(NC(=O)c3ccccc3F)c(Cl)c2)cc1Cl [Example 278] | – | – | – | >10 µg/mL | >10 µg/mL | >10 µg/mL | 15% | –
CC(NC(=S)Nc1ccc(NC(=O)c2ccccc2F)cc1)c1ccc(N(C)C)cc1 (centres unmarked) [Example 793] | – | – | – | 3.1 µg/mL (≈ 7.1 µM) | 9 µg/mL (≈ 20.6 µM) | 3.2 µg/mL (≈ 7.33 µM) | – | –
CC(NC(=S)Nc1ccc(NC(=O)c2ccccc2F)cc1)c1ccccc1 (centres unmarked) [Example 589] | – | – | – | 0.36 µg/mL (≈ 0.915 µM) | >10 µg/mL | 7 µg/mL (≈ 17.8 µM) | – | –
CC(NC(=S)Nc1ccc(NC(=O)c2ccccc2F)cc1)c1cccc(Br)c1 (centres unmarked) [Example 780] | – | – | – | 1.2 µg/mL (≈ 2.54 µM) | >10 µg/mL | 1 µg/mL (≈ 2.12 µM) | – | –
COc1ccc(NC(=S)Nc2ccc(NC(=O)c3ccccc3F)cc2)cc1Br [Example 811] | – | – | – | >7.5 µg/mL | 0.8 µg/mL (≈ 1.69 µM) | 3.1 µg/mL (≈ 6.54 µM) | – | –
O=C(Nc1ccc(NC(=S)Nc2cc(Cl)c(Cl)c(Cl)c2)cc1)c1ccccc1F [Example 937, 2-Fluoro-N-{4-[3-(3,4,5-trichloro-phenyl)-thioureido]-phenyl}-benzamide] | > 10 µg/mL | 0.7 µg/mL (≈ 1.49 µM) | 2 µg/mL (≈ 4.27 µM) | – | – | – | – | 25%
COc1cc(OC)c(NC(=S)Nc2ccc(NC(=O)c3ccccc3[S+](C)[O-])cc2)cc1Cl (centres unmarked) [Example 220] | – | – | – | >10 µg/mL | >10 µg/mL | >10 µg/mL | 35% | –
